Measurements reported in patent publication US6355799B1, “Substituted benzene compounds, process for their preparation, and herbicidal and defoliant compositions containing them” (ISK Americas Incorporated, priority 1997, dated 2002).

Assays:
Type in all cases: in vivo
[1] = tested on: redroot pigweed (Amaranthus retroflexus, AMARE); assay: Pre-emerge test, greenhouse herbicide activity screening; conditions: rated 14 days after application, 0 = no damage, 100 = complete death
Method in brief: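 Sandy loam pots; pre-emerge: sown 1 d pre-spray, surface-watered after, then bottom-watered. Post-emerge: sown 8–21 d before, 2–3 leaf stage, + 0.25% v/v NIS, bottom-watered. Acetone, 187 l/ha track spray, 15–1000 g ai/ha. 0–100 injury score, day 14.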

[2] = tested on: ivyleaf morningglory (Ipomoea hederacea, IPOHE); assay: as above; conditions: rated 14 days after application, 0 = no damage, 100 = complete death
Method in brief: (§1)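 Visual ratings on a 0-100 scale (0 no damage, 100 all plants dead) were taken at 14 days after treatment. Rates of 15-1000 g ai/ha in acetone, 187 l/ha, were sprayed onto soil one day after planting (pre-emerge) or onto 2-3 leaf plants with 0.25% v/v surfactant (post-emerge).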

[3] = tested on: green foxtail (Setaria viridis, SETVI); assay: as above; conditions: rated 14 days after application, 0 = no damage, 100 = complete death
Method in brief: as §1

[4] = tested on: sicklepod (Cassia obtusifolia, CASOB); assay: as above; conditions: rated 14 days after application, 0 = no damage, 100 = complete death
Method in brief: as §1

[5] = tested on: barnyardgrass (Echinochloa crus-galli, ECHCG); assay: as above; conditions: rated 14 days after application, 0 = no damage, 100 = complete death
Method in brief: as §1

[6] = tested on: common ragweed (Ambrosia artemisizfolia L., AMBEL); assay: as above; conditions: rated 14 days after application, 0 = no damage, 100 = complete death
Method in brief: as §1

[7] = tested on: johnsongrass (Sorghum halepense, SORHA); assay: as above; conditions: rated 14 days after application, 0 = no damage, 100 = complete death
Method in brief: as §1

[8] = tested on: large crabgrass (Digitaria sanguinalis, DIGSA); assay: as above; conditions: rated 14 days after application, 0 = no damage, 100 = complete death
Method in brief: as §1

[9] = tested on: lambsquarters (Chenopodium album, CHEAL); assay: as above; conditions: rated 14 days after application, 0 = no damage, 100 = complete death
Method in brief: as §1

[10] = tested on: velvetleaf (Abutilon theophrasti, ABUTH); assay: as above; conditions: rated 14 days after application, 0 = no damage, 100 = complete death
Method in brief: as §1

[11] = tested on: field corn (Zea mays L., var. Dekalb 535, CORN); assay: Pre-emerge test, crop safety; conditions: rated 14 days after application, 0 = no damage, 100 = complete death
Method in brief: (§2)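 Plants grown in 10 cm pots of sandy loam mix received acetone-dissolved compounds through a moving flat-fan nozzle. Doses ranged from 15 to 1000 g ai/ha. Pre-emerge pots were seeded one day earlier, post-emerge pots 8–21 days earlier. Fourteen days on, each pot was graded 0–100 for damage.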

[12] = tested on: upland rice (Oryza sp., var. Tebonnet, RICE); assay: Pre-emerge test, crop safety; conditions: rated 14 days after application, 0 = no damage, 100 = complete death
Method in brief: as §2

[13] = tested on: ivyleaf morningglory (Ipomoea hederacea, IPOHE); assay: Post-emerge test, greenhouse herbicide activity screening; conditions: post-emerge, 14 days after application, rating scale 0-100
Method in brief: as §1

[14] = tested on: green foxtail (Setaria viridis, SETVI); assay: as above; conditions: post-emerge, 14 days after application, rating scale 0-100
Method in brief: as §1

[15] = tested on: sicklepod (Cassia obtusifolia, CASOB); assay: as above; conditions: post-emerge, 14 days after application, rating scale 0-100
Method in brief: as §1

[16] = tested on: barnyardgrass (Echinochloa crus-galli, ECHCG); assay: as above; conditions: post-emerge, 14 days after application, rating scale 0-100
Method in brief: as §1

[17] = tested on: common ragweed (Ambrosia artemisizfolia L., AMBEL); assay: as above; conditions: post-emerge, 14 days after application, rating scale 0-100
Method in brief: as §1

[18] = tested on: johnsongrass (Sorghum halepense, SORHA); assay: as above; conditions: post-emerge, 14 days after application, rating scale 0-100
Method in brief: as §1

[19] = tested on: redroot pigweed (Amaranthus retroflexus, AMARE); assay: as above; conditions: post-emerge, 14 days after application, rating scale 0-100
Method in brief: as §1

[20] = tested on: large crabgrass (Digitaria sanguinalis, DIGSA); assay: as above; conditions: post-emerge, 14 days after application, rating scale 0-100
Method in brief: as §1

[21] = tested on: lambsquarters (Chenopodium album, CHEAL); assay: as above; conditions: post-emerge, 14 days after application, rating scale 0-100
Method in brief: as §1

[22] = tested on: velvetleaf (Abutilon theophrasti, ABUTH); assay: as above; conditions: post-emerge, 14 days after application, rating scale 0-100
Method in brief: as §1

[23] = tested on: field corn (Zea mays L., var. Dekalb 535, CORN); assay: Post-emerge test, crop safety; conditions: post-emerge, 14 days after application, rating scale 0-100
Method in brief: as §1

[24] = tested on: upland rice (Oryza sp., var. Tebonnet, RICE); assay: Post-emerge test, crop safety; conditions: post-emerge, 14 days after application, rating scale 0-100
Method in brief: as §1

COc1c(Cl)cc(F)c(-n2c(=O)cc(C(F)(F)F)n(C)c2=O)c1N(C(=O)c1ccc(Cl)nc1)C(=O)c1ccc(Cl)nc1 [2-100]
90: Pre-emerge Herbicidal Activity, phytotoxicity rating (0-100), ECHCG ([5]; 250 g ai/ha) | Pre-emerge Herbicidal Activity, phytotoxicity rating (0-100), AMBEL ([6]; 63 g ai/ha) | Pre-emerge Herbicidal Activity, phytotoxicity rating (0-100), DIGSA ([8]; 63 g ai/ha) | Pre-emerge phytotoxicity rating (0-100), crop damage, RICE ([12]; 250 g ai/ha) | phytotoxicity rating AMBEL ([17]; 250 g ai/ha)
30: Pre-emerge Herbicidal Activity, phytotoxicity rating (0-100), CASOB ([4]; 63 g ai/ha) | phytotoxicity rating ECHCG ([16]; 250 g ai/ha)
45: Pre-emerge phytotoxicity rating (0-100), crop damage, CORN ([11]; 63 g ai/ha) | phytotoxicity rating RICE ([24]; 63 g ai/ha)
0: phytotoxicity rating ECHCG ([16]; 63 g ai/ha) | phytotoxicity rating SORHA ([18]; 63 g ai/ha) | phytotoxicity rating DIGSA ([20]; 63 g ai/ha)
85: Pre-emerge Herbicidal Activity, phytotoxicity rating (0-100), SORHA ([7]; 63 g ai/ha)
20: phytotoxicity rating DIGSA ([20]; 250 g ai/ha)
70: Pre-emerge Herbicidal Activity, phytotoxicity rating (0-100), ECHCG ([5]; 63 g ai/ha) | phytotoxicity rating SETVI ([14]; 250 g ai/ha) | phytotoxicity rating CASOB ([15]; 63 g ai/ha) | phytotoxicity rating AMBEL ([17]; 63 g ai/ha) | phytotoxicity rating RICE ([24]; 250 g ai/ha)
75: Pre-emerge phytotoxicity rating (0-100), crop damage, RICE ([12]; 63 g ai/ha)
100: Pre-emerge Herbicidal Activity, phytotoxicity rating (0-100), AMARE ([1]; 63 g ai/ha) | Pre-emerge Herbicidal Activity, phytotoxicity rating (0-100), AMARE ([1]; 250 g ai/ha) | Pre-emerge Herbicidal Activity, phytotoxicity rating (0-100), IPOHE ([2]; 63 g ai/ha) | Pre-emerge Herbicidal Activity, phytotoxicity rating (0-100), IPOHE ([2]; 250 g ai/ha) | Pre-emerge Herbicidal Activity, phytotoxicity rating (0-100), SETVI ([3]; 63 g ai/ha) | Pre-emerge Herbicidal Activity, phytotoxicity rating (0-100), SETVI ([3]; 250 g ai/ha) | Pre-emerge Herbicidal Activity, phytotoxicity rating (0-100), CASOB ([4]; 250 g ai/ha) | Pre-emerge Herbicidal Activity, phytotoxicity rating (0-100), AMBEL ([6]; 250 g ai/ha) | Pre-emerge Herbicidal Activity, phytotoxicity rating (0-100), SORHA ([7]; 250 g ai/ha) | Pre-emerge Herbicidal Activity, phytotoxicity rating (0-100), DIGSA ([8]; 250 g ai/ha) | Pre-emerge Herbicidal Activity, phytotoxicity rating (0-100), CHEAL ([9]; 63 g ai/ha) | Pre-emerge Herbicidal Activity, phytotoxicity rating (0-100), CHEAL ([9]; 250 g ai/ha) | Pre-emerge Herbicidal Activity, phytotoxicity rating (0-100), ABUTH ([10]; 63 g ai/ha) | Pre-emerge Herbicidal Activity, phytotoxicity rating (0-100), ABUTH ([10]; 250 g ai/ha) | phytotoxicity rating IPOHE ([13]; 63 g ai/ha) | phytotoxicity rating IPOHE ([13]; 250 g ai/ha) | phytotoxicity rating AMARE ([19]; 250 g ai/ha) | phytotoxicity rating ABUTH ([22]; 63 g ai/ha) | phytotoxicity rating ABUTH ([22]; 250 g ai/ha)
95: Pre-emerge phytotoxicity rating (0-100), crop damage, CORN ([11]; 250 g ai/ha)
80: phytotoxicity rating AMARE ([19]; 63 g ai/ha) | phytotoxicity rating CHEAL ([21]; 63 g ai/ha) | phytotoxicity rating CHEAL ([21]; 250 g ai/ha) | phytotoxicity rating CORN ([23]; 250 g ai/ha)
15: phytotoxicity rating CORN ([23]; 63 g ai/ha)
60: phytotoxicity rating SETVI ([14]; 63 g ai/ha) | phytotoxicity rating CASOB ([15]; 250 g ai/ha) | phytotoxicity rating SORHA ([18]; 250 g ai/ha)

COc1c(Cl)cc(F)c(-n2c(=O)cc(C(F)(F)F)n(C)c2=O)c1NC(=O)c1ccc(Br)cc1 [2-61]
40: Pre-emerge Herbicidal Activity, phytotoxicity rating (0-100), CASOB ([4]; 63 g ai/ha) | phytotoxicity rating ECHCG ([16]; 63 g ai/ha)
90: Pre-emerge Herbicidal Activity, phytotoxicity rating (0-100), IPOHE ([2]; 63 g ai/ha) | Pre-emerge Herbicidal Activity, phytotoxicity rating (0-100), DIGSA ([8]; 63 g ai/ha) | phytotoxicity rating SETVI ([14]; 250 g ai/ha) | phytotoxicity rating CORN ([23]; 250 g ai/ha) | phytotoxicity rating RICE ([24]; 250 g ai/ha)
35: phytotoxicity rating CORN ([23]; 63 g ai/ha)
60: phytotoxicity rating SETVI ([14]; 63 g ai/ha) | phytotoxicity rating RICE ([24]; 63 g ai/ha)
70: phytotoxicity rating ECHCG ([16]; 250 g ai/ha) | phytotoxicity rating SORHA ([18]; 250 g ai/ha)
10: Pre-emerge Herbicidal Activity, phytotoxicity rating (0-100), SETVI ([3]; 63 g ai/ha) | Pre-emerge phytotoxicity rating (0-100), crop damage, CORN ([11]; 63 g ai/ha)
20: phytotoxicity rating SORHA ([18]; 63 g ai/ha) | phytotoxicity rating DIGSA ([20]; 63 g ai/ha)
50: phytotoxicity rating DIGSA ([20]; 250 g ai/ha)
75: Pre-emerge phytotoxicity rating (0-100), crop damage, RICE ([12]; 63 g ai/ha)
95: Pre-emerge phytotoxicity rating (0-100), crop damage, CORN ([11]; 250 g ai/ha) | Pre-emerge phytotoxicity rating (0-100), crop damage, RICE ([12]; 250 g ai/ha) | phytotoxicity rating AMBEL ([17]; 250 g ai/ha)
80: Pre-emerge Herbicidal Activity, phytotoxicity rating (0-100), AMBEL ([6]; 63 g ai/ha) | Pre-emerge Herbicidal Activity, phytotoxicity rating (0-100), SORHA ([7]; 63 g ai/ha)
85: Pre-emerge Herbicidal Activity, phytotoxicity rating (0-100), ECHCG ([5]; 63 g ai/ha)
100: Pre-emerge Herbicidal Activity, phytotoxicity rating (0-100), AMARE ([1]; 63 g ai/ha) | Pre-emerge Herbicidal Activity, phytotoxicity rating (0-100), AMARE ([1]; 250 g ai/ha) | Pre-emerge Herbicidal Activity, phytotoxicity rating (0-100), IPOHE ([2]; 250 g ai/ha) | Pre-emerge Herbicidal Activity, phytotoxicity rating (0-100), SETVI ([3]; 250 g ai/ha) | Pre-emerge Herbicidal Activity, phytotoxicity rating (0-100), CASOB ([4]; 250 g ai/ha) | Pre-emerge Herbicidal Activity, phytotoxicity rating (0-100), ECHCG ([5]; 250 g ai/ha) | Pre-emerge Herbicidal Activity, phytotoxicity rating (0-100), AMBEL ([6]; 250 g ai/ha) | Pre-emerge Herbicidal Activity, phytotoxicity rating (0-100), SORHA ([7]; 250 g ai/ha) | Pre-emerge Herbicidal Activity, phytotoxicity rating (0-100), DIGSA ([8]; 250 g ai/ha) | Pre-emerge Herbicidal Activity, phytotoxicity rating (0-100), CHEAL ([9]; 63 g ai/ha) | Pre-emerge Herbicidal Activity, phytotoxicity rating (0-100), CHEAL ([9]; 250 g ai/ha) | Pre-emerge Herbicidal Activity, phytotoxicity rating (0-100), ABUTH ([10]; 63 g ai/ha) | Pre-emerge Herbicidal Activity, phytotoxicity rating (0-100), ABUTH ([10]; 250 g ai/ha) | phytotoxicity rating IPOHE ([13]; 63 g ai/ha) | phytotoxicity rating IPOHE ([13]; 250 g ai/ha) | phytotoxicity rating CASOB ([15]; 63 g ai/ha) | phytotoxicity rating CASOB ([15]; 250 g ai/ha) | phytotoxicity rating AMBEL ([17]; 63 g ai/ha) | phytotoxicity rating AMARE ([19]; 63 g ai/ha) | phytotoxicity rating AMARE ([19]; 250 g ai/ha) | phytotoxicity rating CHEAL ([21]; 63 g ai/ha) | phytotoxicity rating CHEAL ([21]; 250 g ai/ha) | phytotoxicity rating ABUTH ([22]; 63 g ai/ha) | phytotoxicity rating ABUTH ([22]; 250 g ai/ha)
